Data from article PMC5946847, “Synthesis and biological evaluation of aryl-oxadiazoles as inhibitors of Mycobacterium tuberculosis” (Bioorganic & Medicinal Chemistry Letters, 2018).
≈ marks a conversion by molar mass, not a printed value. Where two headings read alike, the source gives them in different places.

Assays:
[1] = tested on: M. tuberculosis H37Rv expressing DsRed; test: microbe, parasite or virus in culture; assay type: cell-based; settings: Mycobacterium tuberculosis, average ± standard deviation for at least 2 runs, read-out: 7H9-Ty-BT MIC
[2] = tested on: M. tuberculosis H37Rv expressing DsRed; test: microbe, parasite or virus in culture; assay type: cell-based; settings: Mycobacterium tuberculosis, read-out: 7H9-Tw-OADC MIC
Vero cells (ATCC CCL81) = test: Cytotoxicity in Vero cells (CellTiter-Glo); assay type: cell-based; settings: Chlorocebus sabaeus, 48 h, 2 days
Method: Vero cells (ATCC® CCL81) were grown in DMEM, high glucose, GlutaMAX™ (Invitrogen), 10% FBS, 50 units/mL penicillin, and 50 µg/mL streptomycin, seeded as 1200 cells per well in 384-well plates and incubated for 24 h at 37 °C with 5% CO2. Compounds were added as a 3-fold serial dilution series and cells incubated for 2 days at 37 °C with 5% CO2. Viability was measured using CellTiter-Glo® Reagent (Promega).

physchem = settings: pH 7.4
[3] = Mouse microsomal stability; assay type: in vitro ADME; settings: for Mouse microsome (% metabolized in 30 min): 2 μM
Method: 4. Method for microsomal stability:
To determine microsomal turnover, test compounds were incubated (2 μM) with liver microsomes in the presence of NADPH, and loss of parent molecule was measured by LC-MS after 30 min.

FC(F)(F)c1ccc(-c2nnc(CN3CCc4ccccc4C3)o2)cc1 [Compound 31]
MIC [1]: > 20 µM | MIC [2]: > 20 µM | IC50 (Vero cells (ATCC CCL81)): > 100 µM | solubility (physchem): < 2 µg/mL

c1ccc(-c2nnc(CN3CCc4ccccc4C3)o2)cc1 [Compound 29]
MIC [1]: 7.7 ± 0.8 µM (≈ 2.24 µg/mL) | MIC [2]: > 20 µM | IC50 (Vero cells (ATCC CCL81)): > 100 µM | Mouse microsome (% metabolized in 30 min) ([3]; mouse, microsomes, 0.5 h): 99% | solubility (physchem): 51 µg/mL (≈ 175 µM)

c1csc(-c2nnc(CN3CCc4ccccc43)o2)c1 [Compound 36]
MIC [1]: 2.1 ± 0.1 µM (≈ 0.595 µg/mL) | MIC [2]: > 20 µM | IC50 (Vero cells (ATCC CCL81)): > 100 µM | Mouse microsome (% metabolized in 30 min) ([3]; mouse, microsomes, 0.5 h): 99% | solubility (physchem): 38 µg/mL (≈ 134 µM)

CN(Cc1nnc(-c2ccco2)o1)CC1CCCCC1 [Compound 19]
MIC [1]: 0.7 ± 0.5 µM (≈ 0.193 µg/mL) | MIC [2]: > 20 µM | IC50 (Vero cells (ATCC CCL81)): 90 µM | Mouse microsome (% metabolized in 30 min) ([3]; mouse, microsomes, 0.5 h): 100% | solubility (physchem): 41 µg/mL (≈ 149 µM)

c1ccc(C2CCCN2Cc2nnc(-c3cccs3)o2)cc1 (centres unmarked) [Compound 40]
MIC [1]: 9.9 ± 2.1 µM (≈ 3.08 µg/mL) | MIC [2]: > 20 µM | IC50 (Vero cells (ATCC CCL81)): 50 µM | Mouse microsome (% metabolized in 30 min) ([3]; mouse, microsomes, 0.5 h): 100% | solubility (physchem): 50 µg/mL (≈ 161 µM)

c1ccc(-c2nnc(CN3CCCC3c3ccccc3)o2)cc1 (centres unmarked) [Compound 41]
MIC [1]: 8.3 ± 1.4 µM (≈ 2.53 µg/mL) | MIC [2]: > 20 µM | IC50 (Vero cells (ATCC CCL81)): > 100 µM | Mouse microsome (% metabolized in 30 min) ([3]; mouse, microsomes, 0.5 h): 99% | solubility (physchem): 34 µg/mL (≈ 111 µM)

Fc1ccc(-c2nnc(CN3CCOc4ccccc43)o2)cc1 [Compound 34]
MIC [1]: 1.8 ± 0.4 µM (≈ 0.56 µg/mL) | MIC [2]: > 20 µM | IC50 (Vero cells (ATCC CCL81)): > 100 µM | Mouse microsome (% metabolized in 30 min) ([3]; mouse, microsomes, 0.5 h): 98% | solubility (physchem): < 2 µg/mL

c1coc(-c2nnc(SCc3cccc4ccccc34)o2)c1 [Compound 4]
CLint scaled at 2 μM ([3]; mouse, microsomes): 1680 mL/min/kg | Mouse microsome (% metabolized in 30 min) ([3]; mouse, microsomes, 0.5 h): 95% | solubility (physchem): < 1 µg/mL

CN(Cc1nnc(-c2cccs2)o1)Cc1c(F)cccc1Cl [Compound 11]
MIC [1]: 0.6 ± 0.2 µM (≈ 0.203 µg/mL) | MIC [2]: > 20 µM | IC50 (Vero cells (ATCC CCL81)): > 100 µM | Mouse microsome (% metabolized in 30 min) ([3]; mouse, microsomes, 0.5 h): 100% | solubility (physchem): 120 µg/mL (≈ 355 µM)

c1csc(-c2nnc(Cc3cccc4c3OCCO4)o2)c1 [Compound 8]
MIC [1]: 0.8 ± 0.2 µM (≈ 0.24 µg/mL) | MIC [2]: > 20 µM | IC50 (Vero cells (ATCC CCL81)): > 100 µM | Mouse microsome (% metabolized in 30 min) ([3]; mouse, microsomes, 0.5 h): 99% | solubility (physchem): 77 µg/mL (≈ 256 µM)

c1csc(-c2nnc(COc3ccc4c(c3)OCO4)o2)c1 [Compound 5]
Mouse microsome (% metabolized in 30 min) ([3]; NADPH, 30 min): 76% | CLint scaled at 2 μM ([3]; mouse, microsomes, Table 1, read-out: Mouse microsome unbound intrinsic clearance): 332 mL/min/kg

c1coc(-c2nnc(Cc3cccc4ccccc34)o2)c1 [Compound 6]
MIC [1]: 1.1 ± 0.9 µM (≈ 0.304 µg/mL) | MIC [2]: > 20 µM | IC50 (Vero cells (ATCC CCL81)): > 100 µM | Mouse microsome (% metabolized in 30 min) ([3]; mouse, microsomes, 0.5 h): 100% | solubility (physchem): < 1 µg/mL

c1csc(-c2nnc(CN3CCc4ccccc4C3)o2)c1 [Compound 28]
MIC [1]: 3.7 ± 0.3 µM (≈ 1.1 µg/mL) | MIC [2]: > 20 µM | IC50 (Vero cells (ATCC CCL81)): > 100 µM | Mouse microsome (% metabolized in 30 min) ([3]; mouse, microsomes, 0.5 h): 99% | solubility (physchem): 54 µg/mL (≈ 182 µM)

CN(Cc1ccccc1)Cc1nnc(-c2ccco2)o1 [Compound 14]
MIC [1]: 0.6 ± 0.2 µM (≈ 0.162 µg/mL) | MIC [2]: > 20 µM | IC50 (Vero cells (ATCC CCL81)): > 100 µM | Mouse microsome (% metabolized in 30 min) ([3]; mouse, microsomes, 0.5 h): 95% | solubility (physchem): 400 µg/mL (≈ 1490 µM)

c1ccc(-c2nnc(CN3CCOc4ccccc43)o2)cc1 [Compound 33]
MIC [1]: 2.8 ± 1.7 µM (≈ 0.821 µg/mL) | MIC [2]: > 20 µM | IC50 (Vero cells (ATCC CCL81)): > 100 µM | Mouse microsome (% metabolized in 30 min) ([3]; mouse, microsomes, 0.5 h): 99% | solubility (physchem): 28 µg/mL (≈ 95.5 µM)

Fc1ccc(-c2nnc(CN3CCc4ccccc4C3)o2)cc1 [Compound 30]
MIC [1]: 4.7 ± 1.3 µM (≈ 1.45 µg/mL) | MIC [2]: > 20 µM | IC50 (Vero cells (ATCC CCL81)): > 100 µM | Mouse microsome (% metabolized in 30 min) ([3]; mouse, microsomes, 0.5 h): 80% | solubility (physchem): 40 µg/mL (≈ 129 µM)

CN(Cc1nnc(-c2ccco2)o1)Cc1ccccc1Cl [Compound 15]
MIC [1]: 0.6 ± 0.2 µM (≈ 0.182 µg/mL) | MIC [2]: > 20 µM | IC50 (Vero cells (ATCC CCL81)): 98 µM | Mouse microsome (% metabolized in 30 min) ([3]; mouse, microsomes, 0.5 h): 100% | solubility (physchem): 270 µg/mL (≈ 889 µM)

CN(Cc1nnc(-c2ccccc2)o1)Cc1c(F)cccc1Cl [Compound 12]
MIC [1]: 0.4 ± 0.2 µM (≈ 0.133 µg/mL) | MIC [2]: > 20 µM | IC50 (Vero cells (ATCC CCL81)): > 100 µM | Mouse microsome (% metabolized in 30 min) ([3]; mouse, microsomes, 0.5 h): 100% | solubility (physchem): 78 µg/mL (≈ 235 µM)

c1csc(-c2nnc(CN3CCCc4ccccc43)o2)c1 [Compound 24]
MIC [1]: 0.8 ± 0.5 µM (≈ 0.238 µg/mL) | MIC [2]: > 20 µM | IC50 (Vero cells (ATCC CCL81)): > 100 µM | Mouse microsome (% metabolized in 30 min) ([3]; mouse, microsomes, 0.5 h): 97% | solubility (physchem): 5 µg/mL (≈ 16.8 µM)
